From ChEMBL document CHEMBL1140040, “Synthesis and cytotoxic activity of some novel polycyclic gamma-butyrolactones” (Bioorg Med Chem Lett, 2008)

Key:
[1] = system: HCT-15; assay: Cytotoxicity against human HCT15 cells assessed as age growth inhibition at 100 uM after 48 hrs by sulforhodamine B assay; assay type: functional; conditions: HCT-15, 48 h, read-out: GI
[2] = system: HOP-62; assay: Cytotoxicity against human HOP62 cells assessed as age growth inhibition at 50 uM after 48 hrs by sulforhodamine B assay; assay type: functional; conditions: HOP-62, 48 h, read-out: GI
[3] = system: SK-OV-3; assay: Cytotoxicity against human SKOV3 cells assessed as age growth inhibition at 50 uM after 48 hrs by sulforhodamine B assay; assay type: functional; conditions: SK-OV-3, 48 h, read-out: GI
[4] = system: SF-295; assay: Antiproliferative activity against human SF295 cells after 48 hrs by sulforhodamine B assay; assay type: functional, cell-based; conditions: SF-295, 48 h
[5] = system: HOP-62; assay: Cytotoxicity against human HOP62 cells assessed as age growth inhibition at 100 uM after 48 hrs by sulforhodamine B assay; assay type: functional; conditions: HOP-62, 48 h, read-out: GI
[6] = system: HCT-15; assay: Cytotoxicity against human HCT15 cells assessed as age growth inhibition at 50 uM after 48 hrs by sulforhodamine B assay; assay type: functional; conditions: HCT-15, 48 h, read-out: GI
[7] = system: IGROV-1; assay: Cytotoxicity against human IGROV1 cells assessed as age growth inhibition at 10 uM after 48 hrs by sulforhodamine B assay; assay type: functional; conditions: IGROV-1, 48 h, read-out: GI
[8] = system: IGROV-1; assay: Cytotoxicity against human IGROV1 cells assessed as age growth inhibition at 100 uM after 48 hrs by sulforhodamine B assay; assay type: functional; conditions: IGROV-1, 48 h, read-out: GI
[9] = system: HCT-15; assay: Antiproliferative activity against human HCT15 cells after 48 hrs by sulforhodamine B assay; assay type: functional, cell-based; conditions: HCT-15, 48 h
[10] = system: SK-OV-3; assay: Cytotoxicity against human SKOV3 cells assessed as age growth inhibition at 100 uM after 48 hrs by sulforhodamine B assay; assay type: functional; conditions: SK-OV-3, 48 h, read-out: GI
[11] = system: A549; assay: Cytotoxicity against human A549 cells assessed as age growth inhibition at 100 uM after 48 hrs by sulforhodamine B assay; assay type: functional; conditions: A549, 48 h, read-out: GI
[12] = system: HOP-62; assay: Cytotoxicity against human HOP62 cells assessed as age growth inhibition at 10 uM after 48 hrs by sulforhodamine B assay; assay type: functional; conditions: HOP-62, 48 h, read-out: GI
[13] = system: IGROV-1; assay: Antiproliferative activity against human IGROV1 cells after 48 hrs by sulforhodamine B assay; assay type: functional, cell-based; conditions: IGROV-1, 48 h
[14] = system: HOP-62; assay: Antiproliferative activity against human HOP62 cells after 48 hrs by sulforhodamine B assay; assay type: functional, cell-based; conditions: HOP-62, 48 h
[15] = system: COLO 205; assay: Cytotoxicity against human COLO205 cells assessed as age growth inhibition at 50 uM after 48 hrs by sulforhodamine B assay; assay type: functional; conditions: COLO 205, 48 h, read-out: GI
[16] = system: A549; assay: Cytotoxicity against human A549 cells assessed as age growth inhibition at 50 uM after 48 hrs by sulforhodamine B assay; assay type: functional; conditions: A549, 48 h, read-out: GI
[17] = system: SF-295; assay: Cytotoxicity against human SF295 cells assessed as age growth inhibition at 10 uM after 48 hrs by sulforhodamine B assay; assay type: functional; conditions: SF-295, 48 h, read-out: GI
[18] = system: DU-145; assay: Antiproliferative activity against human DU145 cells after 48 hrs by sulforhodamine B assay; assay type: functional, cell-based; conditions: DU-145, 48 h
[19] = system: SF-295; assay: Cytotoxicity against human SF295 cells assessed as age growth inhibition at 100 uM after 48 hrs by sulforhodamine B assay; assay type: functional; conditions: SF-295, 48 h, read-out: GI
[20] = system: DU-145; assay: Cytotoxicity against human DU145 cells assessed as age growth inhibition at 50 uM after 48 hrs by sulforhodamine B assay; assay type: functional; conditions: DU-145, 48 h, read-out: GI
[21] = system: HEp-2; assay: Cytotoxicity against human HEP2 cells assessed as age growth inhibition at 100 uM after 48 hrs by sulforhodamine B assay; assay type: functional; conditions: HEp-2, 48 h, read-out: GI
[22] = system: HEp-2; assay: Cytotoxicity against human HEP2 cells assessed as age growth inhibition at 50 uM after 48 hrs by sulforhodamine B assay; assay type: functional; conditions: HEp-2, 48 h, read-out: GI
[23] = system: SF-295; assay: Cytotoxicity against human SF295 cells assessed as age growth inhibition at 50 uM after 48 hrs by sulforhodamine B assay; assay type: functional; conditions: SF-295, 48 h, read-out: GI
[24] = system: COLO 205; assay: Cytotoxicity against human COLO205 cells assessed as age growth inhibition at 10 uM after 48 hrs by sulforhodamine B assay; assay type: functional; conditions: COLO 205, 48 h, read-out: GI
[25] = system: SK-OV-3; assay: Antiproliferative activity against human SKOV3 cells after 48 hrs by sulforhodamine B assay; assay type: functional, cell-based; conditions: SK-OV-3, 48 h
[26] = system: HEp-2; assay: Cytotoxicity against human HEP2 cells assessed as age growth inhibition at 10 uM after 48 hrs by sulforhodamine B assay; assay type: functional; conditions: HEp-2, 48 h, read-out: GI
[27] = system: HCT-15; assay: Cytotoxicity against human HCT15 cells assessed as age growth inhibition at 10 uM after 48 hrs by sulforhodamine B assay; assay type: functional; conditions: HCT-15, 48 h, read-out: GI
[28] = system: IGROV-1; assay: Cytotoxicity against human IGROV1 cells assessed as age growth inhibition at 50 uM after 48 hrs by sulforhodamine B assay; assay type: functional; conditions: IGROV-1, 48 h, read-out: GI
[29] = system: COLO 205; assay: Cytotoxicity against human COLO205 cells assessed as age growth inhibition at 100 uM after 48 hrs by sulforhodamine B assay; assay type: functional; conditions: COLO 205, 48 h, read-out: GI
[30] = system: A549; assay: Antiproliferative activity against human A549 cells after 48 hrs by sulforhodamine B assay; assay type: functional, cell-based; conditions: A549, 48 h
[31] = system: DU-145; assay: Cytotoxicity against human DU145 cells assessed as age growth inhibition at 100 uM after 48 hrs by sulforhodamine B assay; assay type: functional; conditions: DU-145, 48 h, read-out: GI
[32] = system: HEp-2; assay: Antiproliferative activity against human HEP2 cells after 48 hrs by sulforhodamine B assay; assay type: functional, cell-based; conditions: HEp-2, 48 h
[33] = system: COLO 205; assay: Antiproliferative activity against human COLO205 cells after 48 hrs by sulforhodamine B assay; assay type: functional, cell-based; conditions: COLO 205, 48 h
[34] = system: DU-145; assay: Cytotoxicity against human DU145 cells assessed as age growth inhibition at 10 uM after 48 hrs by sulforhodamine B assay; assay type: functional; conditions: DU-145, 48 h, read-out: GI
[35] = system: A549; assay: Cytotoxicity against human A549 cells assessed as age growth inhibition at 10 uM after 48 hrs by sulforhodamine B assay; assay type: functional; conditions: A549, 48 h, read-out: GI
[36] = system: SK-OV-3; assay: Cytotoxicity against human SKOV3 cells assessed as age growth inhibition at 10 uM after 48 hrs by sulforhodamine B assay; assay type: functional; conditions: SK-OV-3, 48 h, read-out: GI

SMILES: CC1(C)CCC[C@@]2(C)C1=C[C@H]1C(=O)O[C@H](c3ccc(Br)cc3)[C@H]12
- inhibition of growth at 100 µM [1]: 40%
- inhibition of growth at 50 µM [2]: 55%
- inhibition of growth at 50 µM [3]: 28%
- IC50 [4]: > 100 µM
- inhibition of growth at 100 µM [5]: 66%
- inhibition of growth at 50 µM [6]: 32%
- inhibition of growth at 10 µM [7]: 7%
- inhibition of growth at 100 µM [8]: 30%
- IC50 [9]: > 100 µM
- inhibition of growth at 100 µM [10]: 52%
- inhibition of growth at 100 µM [11]: 26%
- inhibition of growth at 10 µM [12]: 0%
- IC50 [13]: > 100 µM
- IC50 [14]: 49.5 µM
- inhibition of growth at 50 µM [15]: 14%
- inhibition of growth at 50 µM [16]: 10%
- inhibition of growth at 10 µM [17]: 0%
- IC50 [18]: > 100 µM
- inhibition of growth at 100 µM [19]: 21%
- inhibition of growth at 50 µM [20]: 27%
- inhibition of growth at 100 µM [21]: 22%
- inhibition of growth at 50 µM [22]: 18%
- inhibition of growth at 50 µM [23]: 18%
- inhibition of growth at 10 µM [24]: 14%
- IC50 [25]: 95.1 µM
- inhibition of growth at 10 µM [26]: 3%
- inhibition of growth at 10 µM [27]: 7%
- inhibition of growth at 50 µM [28]: 26%
- inhibition of growth at 100 µM [29]: 32%
- IC50 [30]: > 100 µM
- inhibition of growth at 100 µM [31]: 28%
- IC50 [32]: > 100 µM
- IC50 [33]: > 100 µM
- inhibition of growth at 10 µM [34]: 21%
- inhibition of growth at 10 µM [35]: 8%
- inhibition of growth at 10 µM [36]: 6%
